Reference: patent US20060100431A1, “Biologically active compounds” (Amura Therapeutics Limited, priority 2002, published 2006)

Key:
human cathepsin K = target: T1, human cathepsin K (Homo sapiens, UniProt P43235); test: Cathepsin K peptidase activity assay (Ki); format: biochemical; conditions: Table 5
T1 construct: Dr. Boris Turk (Josef Stefan Institute, Ljubljana, Slovenia)
T1 sequence (P43235 115-329): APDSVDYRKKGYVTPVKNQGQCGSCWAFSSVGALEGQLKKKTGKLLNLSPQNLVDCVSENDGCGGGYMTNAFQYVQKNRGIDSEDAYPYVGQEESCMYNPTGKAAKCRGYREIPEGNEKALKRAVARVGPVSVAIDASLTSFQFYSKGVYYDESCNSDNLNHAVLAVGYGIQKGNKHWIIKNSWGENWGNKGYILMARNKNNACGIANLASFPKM
Method: Unless otherwise stated, all general chemicals and biochemicals were purchased from either the Sigma Chemical Company, Poole, Dorset, U.K or from Fisher Scientific UK, Loughborough, Leicestershire, U.K. Absorbance assays were carried out in flat-bottomed 96-well plates (Spectra; Greiner Bio-One Ltd., Stonehouse, Gloucestershire, U.K.) using a SpectraMax PLUS384 plate reader (Molecular Devices, Crawley, U.K.). […] Fluorescence assays were monitored using a SpectraMax Gemini fluorescence plate reader (Molecular Devices). For substrates employing either a 7-amino-4-methylcoumarin (AMC) or a 7-amino-4-trifluoromethylcoumarin (AFC) fluorophore, assays were monitored at an excitation wavelength of 365 nm and an emission wavelength of 450 nm and the fluorescence plate reader calibrated with AMC. For substrates employing a 3-amino-benzoyl (Abz) fluorophore, assays were monitored at an excitation wavelength of 310 nm and an emission wavelength of 445 nm; the fluorescence plate reader calibrated with 3-amino-benzamide (Fluka). Unless otherwise indicated, all the peptidase substrates were purchased from Bachem UK, St Helens, Merseyside, UK. […] Hydroxyethylpiperazine ethanesulfonate (HEPES), tris-hydroxylmethyl aminomethane (tris) base, bis-tris-propane and all the biological detergents (e.g. CHAPS, zwittergents, etc.) were purchased from CN Biosciences UK, Beeston, Nottinghamshire, U.K. Glycerol was purchased from Amersham Pharmacia Biotech, Little Chalfont, Buckinghamshire, U.K. Stock solutions of substrate or inhibitor were made up to 10 mM in 100% dimethylsulfoxide (DMSO) (Rathburns, Glasgow, U.K.) and diluted as appropriately required. In all cases the DMSO concentration in the assays was maintained at less than 1% (vol./vol.).
Enzyme was added as required to initiate the reaction and the activity, as judged by the change in fluorescence upon conversion of substrate to product, was monitored over time. All assays were carried out at 25±1° C.
Bovine cathepsin S, human cathepsin L, human cathepsin H and human cathepsin B were obtained from CN Biosciences. Recombinant human cathepsin S, human cathepsin K and human cathepsin X were obtained from Dr. Boris Turk (Josef Stefan Institute, Ljubljana, Slovenia). Unless otherwise stated, all peptidase activity assays were carried out in 10 mM bis-tris-propane (BTP), pH 6.5 containing 1 mM EDTA, 5 mM 2-mercaptoethanol and 1 mM CaCl2.
The apparent inhibition constant (Ki) for each compound was determined on the basis that inhibition was reversible and occurred by a pure-competitive mechanism. […] [formula]
[formula] Ki^app=Ki(1+[So]/KM^app) (4)
Curves were fitted by non-linear regression analysis (Prism) using a fixed value for the enzyme concentration.

CPB2.8ΔCTE = target: T2, CPB2.8ΔCTE (Leishmania mexicana, UniProt P36400); test: Leishmania mexicana cysteine protease B (CPB) peptidase activity assay (Ki); format: biochemical
T2 construct: Wild-type recombinant CPB without the C-terminal extention (i.e. CPB2.8ΔCTE); Dr. Jeremy Mottram (Wellcome Centre for Molecular Parasitology, University of Glasgow)
T2 sequence (P36400 126-343, stated change not applied): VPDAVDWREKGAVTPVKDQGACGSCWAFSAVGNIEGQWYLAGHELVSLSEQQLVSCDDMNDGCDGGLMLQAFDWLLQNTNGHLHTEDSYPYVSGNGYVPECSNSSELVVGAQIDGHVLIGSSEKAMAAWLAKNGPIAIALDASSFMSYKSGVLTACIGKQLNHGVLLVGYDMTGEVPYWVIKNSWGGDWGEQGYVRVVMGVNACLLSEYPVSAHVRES
Outline: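 Recombinant CPB2.8ΔCTE (0.25 nM) was assayed in 100 mM sodium acetate pH 5.5 with 1 mM EDTA, 200 mM NaCl and 10 mM DTT at 25 °C, DMSO <1%, enzyme added to start. Rates were taken from continuous fluorescence slopes; apparent Ki was fitted assuming reversible, pure-competitive inhibition.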

[1] = Ki, inhibitors of Leismania mexicana CPB protease

SMILES | Ki (human cathepsin K) [µM] | Ki (CPB2.8ΔCTE; Ki CPB, Table 5) [µM] | Ki (CPB2.8ΔCTE; [1]) [µM]
CC(C)C[C@H](NC(=O)c1ccc(-c2cccs2)cc1)C(=O)N1CC[C@@H]2[C@H]1C(=O)CN2C(=O)c1ccccc1 [Example 2, (3aR,6aS)-N-[(1S)-1-(4-Benzoyl-6-oxo-hexahydro-pyrrolo[3,2-b]pyrrole-1-carbonyl)-3-methyl-butyl]-4-thiophen-2-yl-benzamide] | < 0.01 | > 0.2 | < 5
CC(C)C[C@H](NC(=O)c1ccc(N(C)C)cc1)C(=O)N1CC[C@@H]2[C@H]1C(=O)CN2C(=O)c1ccccc1 [Example 14, (3aR,6aS)-N-[(1S)-1-(4-Benzoyl-6-oxo-hexahydro-pyrrolo[3,2-b]pyrrole-1-carbonyl)-3-methyl-butyl]-4-dimethylamino-benzamide] |  |  | < 5
CC(C)C[C@H](NC(=O)c1cccc(N(C)C)c1)C(=O)N1CC[C@@H]2[C@H]1C(=O)CN2C(=O)c1cccc(S(C)(=O)=O)c1 [Example 59, (3aR,6aS)-3-Dimethylamino-N-{(1S)-1-[4-(3-methanesulfonyl-benzoyl)-6-oxo-hexahydro-pyrrolo[3,2-b]pyrrole-1-carbonyl]-3-methyl-butyl}-benzamide] |  |  | < 5
CC(C)C[C@H](NC(=O)c1ccc2c(c1)CCCN2)C(=O)N1CC[C@@H]2[C@H]1C(=O)CN2C(=O)c1ccccc1 [Example 87, (3aR,6aS)-1,2,3,4-Tetrahydro-quinoline-6-carboxylic acid [(1S)-1-(4-benzoyl-6-oxo-hexahydro-pyrrolo[3,2-b]pyrrole-1-carbonyl)-3-methyl-butyl]-amide] |  |  | < 5
CC(C)C[C@H](NC(=O)c1ccc2ncsc2c1)C(=O)N1CC[C@@H]2[C@H]1C(=O)CN2C(=O)c1ccccc1 [Example 90, (3aR,6aS)-Benzothiazole-6-carboxylic acid [(1S)-1-(4-benzoyl-6-oxo-hexahydro-pyrrolo[3,2-b]pyrrole-1-carbonyl)-3-methyl-butyl]-amide] |  |  | < 5
CC(C)C[C@H](NC(=O)c1ccc(-n2cccn2)cc1)C(=O)N1CC[C@@H]2[C@H]1C(=O)CN2C(=O)c1ccccc1 [Example 91, (3aR,6aS)-N-[(1S)-1-(4-Benzoyl-6-oxo-hexahydro-pyrrolo[3,2-b]pyrrole-1-carbonyl)-3-methyl-butyl]-4-pyrazol-1-yl-benzamide] |  |  | < 5
CC(C)C[C@H](NC(=O)c1ccc(N(C)C)cc1)C(=O)N1CC[C@@H]2[C@H]1C(=O)CN2C(=O)c1csc2ccccc12 [Example 103, (3aR,6aS)-N-{(1S)-1-[4-(Benzo[b]thiophene-3-carbonyl)-6-oxo-hexahydro-pyrrolo[3,2-b]pyrrole-1-carbonyl]-3-methyl-butyl}-4-dimethylamino-benzamide] |  |  | < 5
CC(=O)N[C@@H](CC(C)C)C(=O)N1CC(=O)[C@@H]2[C@H]1CCN2C(=O)[C@H](CC(C)C)NC(=O)c1ccc(N(C)C)cc1 [Example 151, (3aR,6aS)-N-{(1S)-1-[4-((2S)-2-Acetylamino-4-methyl-pentanoyl)-6-oxo-hexahydro-pyrrolo[3,2-b]pyrrole-1-carbonyl]-3-methyl-butyl}-4-dimethylamino-benzamide] |  |  | < 5
CC(C)C[C@H](NC(=O)c1ccc(N(C)C)cc1)C(=O)N1CC[C@@H]2[C@H]1C(=O)CN2C(=O)[C@@H](NC(=O)OCc1ccccc1)C(C)C [Example 158, (3aS,6aR)-((S)-1-{4-[(2S)-2-(4-Dimethylamino-benzoylamino)-4-methyl-pentanoyl]-3-oxo-hexahydro-pyrrolo[3,2-b]pyrrole-1-carbonyl}-2-methyl-propyl)-carbamic acid benzyl ester] |  |  | < 5
CC(C)C[C@H](NC(=O)c1ccc(OC(F)(F)F)cc1)C(=O)N1CC[C@@H]2[C@H]1C(=O)CN2C(=O)c1ccccc1 [Example 173, (3aR,6aS)-N-[(1S)-1-(4-Benzoyl-6-oxo-hexahydro-pyrrolo[3,2-b]pyrrole-1-carbonyl)-3-methyl-butyl]-4-trifluoromethoxy-benzamide] |  |  | < 5
CC(C)C[C@H](NC(=O)c1ccc(N2CCNCC2)cc1)C(=O)N1CC[C@@H]2[C@H]1C(=O)CN2C(=O)c1ccccc1 [Example 194, (3aR,6aS)-N-[(1S)-1-(4-Benzoyl-6-oxo-hexahydro-pyrrolo[3,2-b]pyrrole-1-carbonyl)-3-methyl-butyl]-4-piperazin-1-yl-benzamide] |  |  | < 5
CC(C)C[C@H](NC(=O)c1cccc(N2CCNCC2)c1)C(=O)N1CC[C@@H]2[C@H]1C(=O)CN2C(=O)c1ccccc1 [Example 247, (3aR,6aS)-N-[(1S)-1-(4-Benzoyl-6-oxo-hexahydro-pyrrolo[3,2-b]pyrrole-1-carbonyl)-3-methyl-butyl]-3-piperazin-1-yl-benzamide] |  |  | < 5
CC(C)C[C@H](NC(=O)c1ccc(C(C)(C)C)cc1)C(=O)N1NC[C@@H]2[C@H]1C(=O)CN2C(=O)c1ccccc1 [Example 249a, (3aR,6aS)-N-[(1S)-1-(4-benzoyl-6-oxo-hexahydropyrrolo[3,2-c]pyrazole-1-carbonyl)-3-methylbutyl]-4-tert-butylbenzamide] |  |  | < 5
CC(C)CC(NC(=O)c1ccc(N)cc1)C(=O)N1NC[C@@H]2[C@H]1C(=O)CN2C(=O)c1ccccc1 (stereo partly drawn) [Example 249b, (3aR,6aS)-4-amino-N-[1-(4-benzoyl-6-oxo-hexahydropyrrolo[3,2-c]pyrazole-1-carbonyl)-3-methylbutyl)benzamide] |  |  | < 5
CC(C)C[C@H](NC(=O)c1ccc(N)cc1)C(=O)N1NC[C@@H]2[C@H]1C(=O)CN2C(=O)c1cccc(S(C)(=O)=O)c1 [Example 249c, (3aR,6aS)-4-amino-N-{(1S)-1-[4-(3-methanesulfonylbenzoyl)-6-oxo-hexahydropyrrolo [3,2-c]pyrazole-1-carbonyl]-3-methylbutyl}benzamide] |  |  | < 5
O=C(N[C@@H](CC1CCCCC1)C(=O)N1CC[C@@H]2[C@H]1C(=O)CN2C(=O)c1ccccc1)c1ccsc1 [Example 250, (3aR,6aS)-Thiophene-3-carboxylic acid [(1S)-2-(4-benzoyl-6-oxo-hexahydro-pyrrolo[3,2-b]pyrrole-1-yl)-1-cyclohexylmethyl-2-oxo-ethyl]-amide] | > 5 | > 5 | 
O=C(N[C@@H](Cc1ccc(O)cc1)C(=O)N1CC[C@@H]2[C@H]1C(=O)CN2C(=O)c1ccccc1)c1cccc2ccccc12 [Example 296, (3aR,6aS)-Naphthalene-1-carboxylic acid [(1S)-2-(4-benzoyl-6-oxo-hexahydro-pyrrolo[3,2-b]pyrrole-1-yl)-1-(4-hydroxybenzyl)-2-oxo-ethyl]-amide] | > 50 | > 5 | 
CC(C)(C)c1ccc(C(=O)N[C@@H](Cc2ccc(O)cc2)C(=O)N2CC[C@@H]3[C@H]2C(=O)CN3C(=O)c2ccccc2)cc1 [Example 346, (3aR,6aS)-N-[(1S)-2-(4-Benzoyl-6-oxo-hexahydro-pyrrolo[3,2-b]pyrrol-1-yl)-1-(4-hydroxybenzyl)-2-oxo-ethyl]-4-tert-butyl-benzamide] | > 8 | > 5 | 
